Measured values as given in patent publication US11655246B2, “Aminothiazole compounds as inhibitors of CTPS1” (STEP PHARMA S.A.S., priority 2017, dated 2023).
Where “and” joins values, the source holds several entries; their conditions need not be identical. Identical values can stand only once. Counter-ions that a name gives are not always drawn.

target: T1, human CTPS1 (Homo sapiens, UniProt P17812); assay: Human CTPS1 enzyme inhibition (ADP-Glo Max assay); format: biochemical; conditions: Table 17, 25° C., read-out: CTPS1 (Human CTPS1 Enzyme Inhibition data grouped by potency range)
T1 construct: purchased Proteros biostructures GmbH
T1 sequence (P17812 1-591): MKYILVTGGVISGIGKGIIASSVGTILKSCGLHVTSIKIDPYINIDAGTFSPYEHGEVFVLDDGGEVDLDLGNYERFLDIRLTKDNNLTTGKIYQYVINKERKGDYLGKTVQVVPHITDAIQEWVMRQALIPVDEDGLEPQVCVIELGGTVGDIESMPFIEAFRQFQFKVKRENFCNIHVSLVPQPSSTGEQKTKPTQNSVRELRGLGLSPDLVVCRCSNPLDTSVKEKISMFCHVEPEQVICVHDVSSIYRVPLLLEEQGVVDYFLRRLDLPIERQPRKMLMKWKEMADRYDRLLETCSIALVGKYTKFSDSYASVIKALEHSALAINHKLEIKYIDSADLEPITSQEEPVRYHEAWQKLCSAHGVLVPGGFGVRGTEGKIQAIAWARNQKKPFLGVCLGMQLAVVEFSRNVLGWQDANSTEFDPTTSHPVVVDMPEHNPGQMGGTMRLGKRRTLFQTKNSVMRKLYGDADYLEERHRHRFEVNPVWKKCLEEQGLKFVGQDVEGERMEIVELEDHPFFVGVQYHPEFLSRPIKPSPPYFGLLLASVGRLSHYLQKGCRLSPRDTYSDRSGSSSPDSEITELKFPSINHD
Outline: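 ADP-Glo Max luminescence detection of ATP-to-ADP conversion by the enzyme, in 50 mM Tris, 10 mM MgCl2, 0.01% Tween-20, pH 8.0, with 2 mM L-cysteine added fresh. Enzyme preincubated with compound 10 minutes at 25° C. Percentage inhibition calculated per compound concentration.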

Row | IC50 | SMILES
1 | 100 to 1000 nM | O=C(Nc1ccc(-c2cncc(C(F)(F)F)n2)cn1)C1CCc2sc(NS(=O)(=O)C3CC3)nc21 (stereo not shown) [T169]
2 | < 100 nM | CCOc1cncc(-c2ccc(NC(=O)C(CC)c3csc(NS(=O)(=O)C4CC4)n3)cc2)n1 (stereo not shown) [T189]
3 | < 100 nM | CCC(C(=O)Nc1ccc(-c2cncc(OCC(F)(F)F)n2)cn1)c1csc(NS(=O)(=O)C2CC2)n1 (stereo not shown) [T182]
4 | < 100 nM | CCC(C(=O)Nc1ccc(-c2cncc(OC)n2)cc1)c1csc(NS(=O)(=O)C2CC2)n1 (stereo not shown) [T33]
5 | < 100 nM | CC(C(=O)Nc1ccc(-c2cncc(Cl)c2)cc1)c1csc(NS(=O)(=O)C2CC2)n1 (stereo not shown) [T95]
6 | < 100 nM | CCCOc1cncc(-c2ccc(NC(=O)C(CC)c3csc(NS(=O)(=O)C4CC4)n3)cc2)n1 (stereo not shown) [T75]
7 | < 100 nM and 100 to 1000 nM | CCC(C(=O)Nc1ccc(-c2cncc(OCC(F)(F)F)c2)cc1)c1csc(NS(=O)(=O)C2CC2)n1 (stereo not shown) [T211]
8 | < 100 nM | COCCC(C(=O)Nc1ccc(-c2cncc(F)c2)cc1)c1csc(NS(=O)(=O)C2CC2)n1 (stereo not shown) [T191]
9 | < 100 nM | CCC(C(=O)Nc1ccc(-c2cncc(Cl)n2)cc1)c1csc(NS(=O)(=O)C2CC2)n1 (stereo not shown) [T78, N-(4-(6-chloropyrazin-2-yl)phenyl)-2-(2-(cyclopropanesulfonamido)thiazol-4-yl)butanamide]
10 | < 100 nM | CCOc1cncc(-c2ccc(NC(=O)C(C)c3csc(NS(=O)(=O)C4CC4)n3)cc2)c1 (stereo not shown) [T94]
11 | 100 to 1000 nM | CCC(C(=O)Nc1ccc(-c2ccccc2)cc1)c1csc(NS(=O)(=O)C2CC2)n1 (stereo not shown) [T85]
12 | 1000 to 10000 nM | CCC(C(=O)Nc1ncc(-c2cncc(C#N)n2)cc1F)c1csc(NS(=O)(=O)C2CC2)n1 (stereo not shown) [T184]
13 | < 100 nM | CCOc1cncc(-c2ccc(NC(=O)C(CC)c3csc(NS(=O)(=O)C4CC4)n3)nc2)n1 (stereo not shown) [T177]
14 | < 100 nM | CCOc1cncc(-c2ccc(NC(=O)C(CC)c3csc(NS(=O)(=O)C4CC4)n3)c(F)c2)n1 (stereo not shown) [T198]
15 | < 100 nM | COCCC(C(=O)Nc1ccc(-c2cncc(C(F)(F)F)n2)cn1)c1csc(NS(=O)(=O)C2CC2)n1 (stereo not shown) [T59]
16 | < 100 nM | CCC(C(=O)Nc1ccc(-c2cncc(F)c2)cc1)c1csc(NS(=O)(=O)C2CC2)n1 (stereo not shown) [T90]
17 | 100 to 1000 nM | Cc1ncc(-c2ccc(NC(=O)C(C)(C)c3csc(NS(=O)(=O)C4CC4)n3)cc2)nc1Cl [T277]
18 | < 100 nM | CCC(C(=O)Nc1ccc(-c2cncc(OC(F)F)c2)cn1)c1csc(NS(=O)(=O)C2CC2)n1 (stereo not shown) [T186]

same assay, conditions: Table 18, additional potency data, 25° C., read-out: CTPS1 (Human CTPS1 Enzyme Inhibition data grouped by potency range)

Row | IC50 [nM] | SMILES
19 | < 100 | Cc1c(NC(=O)C(C)(C)c2csc(NS(=O)(=O)C3CC3)n2)ccc(-c2cncc(Cl)c2)c1F [T363, N-(4-(5-chloropyridin-3-yl)-3-fluoro-2-methylphenyl)-2-(2-(cyclopropanesulfonamido)thiazol-4-yl)-2-methylpropanamide]
20 | < 100 | COCCC(C(=O)Nc1ccc(-c2cncc(OC(C)C)n2)cc1F)c1csc(NS(=O)(=O)C2CC2)n1 (stereo not shown) [T400, 2-(2-(cyclopropanesulfonamido)thiazol-4-yl)-N-(2-fluoro-4-(6-isopropoxypyrazin-2-yl)phenyl)-4-methoxybutanamide]
21 | < 100 | CCOc1cncc(-c2ccc(NC(=O)C3(c4csc(NS(=O)(=O)C5CC5)n4)CC3)cc2)n1 [T398, 1-(2-(cyclopropanesulfonamido)thiazol-4-yl)-N-(4-(6-ethoxypyrazin-2-yl)phenyl)cyclopropane-1-carboxamide]
22 | < 100 | CCOc1cncc(-c2ccc(NC(=O)C(c3csc(NS(=O)(=O)C4CC4)n3)N(C)C)cc2)n1 (stereo not shown) [T328, 2-(2-(cyclopropanesulfonamido)thiazol-4-yl)-2-(dimethylamino)-N-(4-(6-ethoxypyrazin-2-yl)phenyl)acetamide]
23 | 100 to 1000 | CCOc1cc(NC(=O)C(C)(C)c2csc(NS(=O)(=O)C3CC3)n2)ccc1-c1cncc(Cl)c1 [T372, N-(4-(5-chloropyridin-3-yl)-3-ethoxyphenyl)-2-(2-(cyclopropanesulfonamido)thiazol-4-yl)-2-methylpropanamide]
24 | < 100 | CC(C)(C(=O)Nc1ccc(-c2cncc(Cl)c2)cc1C(F)(F)F)c1csc(NS(=O)(=O)C2CC2)n1 [T343, N-(4-(5-chloropyridin-3-yl)-2-(trifluoromethyl)phenyl)-2-(2-(cyclopropanesulfonamido)thiazol-4-yl)-2-methylpropanamide]
25 | 100 to 1000 | CC(C)(C(=O)Nc1ccc(-c2cncc(C(F)(F)F)n2)cc1)c1csc(NS(=O)(=O)C2CCCC2)n1 [T334, 2-(2-(cyclopentanesulfonamido)thiazol-4-yl)-2-methyl-N-(4-(6-(trifluoromethyl)pyrazin-2-yl)phenyl)propanamide]
26 | < 100 | CN(C)C(C(=O)Nc1ccc(-c2cncc(C(F)(F)F)n2)cc1F)c1csc(NS(=O)(=O)C2CC2)n1 (stereo not shown) [T420, 2-(2-(Cyclopropanesulfonamido)thiazol-4-yl)-2-(dimethylamino)-N-(2-fluoro-4-(6-(trifluoromethyl)pyrazin-2-yl)phenyl)acetamide]
27 | < 100 | CCOc1cncc(-c2ccc(NC(=O)C(CC)c3csc(NS(=O)(=O)C4CC4)n3)c(F)c2)n1 (single isomer, unassigned) [T413, 2-(2-(cyclopropanesulfonamido)thiazol-4-yl)-N-(4-(6-ethoxypyrazin-2-yl)-2-fluorophenyl)butanamide]
28 | 100 to 1000 | CC(C)(C(=O)Nc1ccc(-c2cncc(C(F)(F)F)n2)cc1C(F)(F)F)c1csc(NS(=O)(=O)C2CC2)n1 [T346, 2-(2-(cyclopropanesulfonamido)thiazol-4-yl)-2-methyl-N-(2-(trifluoromethyl)-4-(6-(trifluoromethyl)pyrazin-2-yl)phenyl)propanamide]
29 | < 100 | CCS(=O)(=O)Nc1nc(C(C)(C)C(=O)Nc2ccc(-c3cncc(C(F)(F)F)n3)cn2)cs1 [T381, 2-(2-(ethylsulfonamido)thiazol-4-yl)-2-methyl-N-(5-(6-(trifluoromethyl)pyrazin-2-yl)pyridin-2-yl)propanamide]
30 | < 100 | CC(C)Oc1cncc(-c2ccc(NC(=O)C(C)(C)c3csc(NS(C)(=O)=O)n3)c(F)c2)n1 [T392, N-(2-fluoro-4-(6-isopropoxypyrazin-2-yl)phenyl)-2-methyl-2-(2-(methylsulfonamido)thiazol-4-yl)propanamide]
31 | < 100 | CCOc1cncc(-c2ccc(NC(=O)C(OC)c3csc(NS(=O)(=O)C4CC4)n3)c(OC(F)(F)F)c2)n1 (stereo not shown) [T454]
32 | < 100 | CC(C)(C(=O)Nc1ccc(-c2cncc(C(F)(F)F)n2)cc1)c1csc(NS(C)(=O)=O)n1 [T394, 2-methyl-2-(2-(methylsulfonamido)thiazol-4-yl)-N-(4-(6-(trifluoromethyl)pyrazin-2-yl)phenyl)propanamide]
33 | < 100 | CCC(C(=O)Nc1ccc(-c2cncc(C(F)(F)F)n2)cn1)c1csc(NS(=O)(=O)C2CC2)n1 (single isomer, unassigned) [T414, 2-(2-(cyclopropanesulfonamido)thiazol-4-yl)-N-(5-(6-(trifluoromethyl)pyrazin-2-yl)pyridin-2-yl)butanamide]
34 | < 100 | Cc1c(NC(=O)C(C)(C)c2csc(NS(=O)(=O)C3CC3)n2)ccc(-c2cncc(Cl)c2)c1C [T365, N-(4-(5-chloropyridin-3-yl)-2,3-dimethylphenyl)-2-(2-(cyclopropanesulfonamido)thiazol-4-yl)-2-methylpropanamide]
35 | 100 to 1000 | CC(C)c1cc(-c2cncc(C#N)c2)ccc1NC(=O)C(C)(C)c1csc(NS(=O)(=O)C2CC2)n1 [T360, N-(4-(5-cyanopyridin-3-yl)-2-isopropylphenyl)-2-(2-(cyclopropanesulfonamido)thiazol-4-yl)-2-methylpropanamide]
36 | 100 to 1000 | Cc1cc(-c2cncc(Cl)c2)c(C)cc1NC(=O)C(C)(C)c1csc(NS(=O)(=O)C2CC2)n1 [T366, N-(4-(5-chloropyridin-3-yl)-2,5-dimethylphenyl)-2-(2-(cyclopropanesulfonamido)thiazol-4-yl)-2-methylpropanamide]
37 | 1000 to 10000 | CC(C)(C(=O)Nc1ccc(-c2cncc(OCC3CCCC3)n2)cc1)c1csc(NS(=O)(=O)C2CC2)n1 [T378, N-(4-(6-(cyclopentylmethoxy)pyrazin-2-yl)phenyl)-2-(2-(cyclopropanesulfonamido)thiazol-4-yl)-2-methylpropanamide]
38 | 100 to 1000 | NC(C(=O)Nc1ccc(-c2cncc(C(F)(F)F)n2)cn1)c1csc(NS(=O)(=O)C2CC2)n1 (stereo not shown) [T417, 2-Amino-2-(2-(cyclopropanesulfonamido)thiazol-4-yl)-N-(5-(6-(trifluoromethyl)pyrazin-2-yl)pyridin-2-yl)acetamide hydrochloride]
39 | 100 to 1000 | CCc1cc(-c2cncc(Cl)c2)cc(CC)c1NC(=O)C(C)(C)c1csc(NS(=O)(=O)C2CC2)n1 [T348, N-(4-(5-chloropyridin-3-yl)-2,6-diethylphenyl)-2-(2-(cyclopropanesulfonamido)thiazol-4-yl)-2-methylpropanamide]
40 | < 100 | COC(C(=O)Nc1ccc(-c2cncc(C(F)(F)F)n2)cc1F)c1csc(NS(=O)(=O)C2CC2)n1 (stereo not shown) [T408, 2-(2-(cyclopropanesulfonamido)thiazol-4-yl)-N-(2-fluoro-4-(6-(trifluoromethyl)pyrazin-2-yl)phenyl)-2-methoxyacetamide]
